Experimental data taken from ChEMBL document CHEMBL4359836, “Synthesis and Biological Assessment of Pyrrolobenzoxazine Scaffold as a Potent Antioxidant” (J Med Chem, 2019).
The source made the active and inactive calls. The calls are words filed in the database; no cut-off is given here.

How the values were obtained:
[1] = system: Mitochondria; test: (§1) Protective activity against CuCl2/ascorbic acid-induced apoptotic alteration in goat cardiac mitochondria assessed as reversal of CuCl2/ascorbic acid-induced reduction in cytochrome c oxidoreductase activity incubated for 1 hr and measured at 10 secs time interval for 90 secs by spectrophotometric analysis; type: functional, subcellular; conditions: Capra hircus; Heart; Mitochrondria
[2] = system: Mitochondria; test: Antioxidant activity in goat cardiac mitochondria assessed as inhibition of CuCl2/ascorbic acid-induced protein carbonyl content at 8.25 uM after 1 hr by DNPH assay relative to control; type: functional, subcellular; conditions: Capra hircus, Heart, Mitochrondria
[3] = Binding affinity to Cu2+ assessed as binding constant K2 at 66 uM in presence of ascorbic acid/CuCl2 by isothermal titration calorimetry
[4] = system: Mitochondria; test: Antioxidant activity in goat cardiac mitochondria assessed as reversal of CuCl2/ascorbic acid-induced reduction in SDH level at 16.5 uM using succinate as substrate after 1 hr by spectrophotometric analysis relative to control; type: functional, subcellular; conditions: Capra hircus, Heart, Mitochrondria
[5] = system: Mitochondria; test: Antioxidant activity in goat cardiac mitochondria assessed as reversal of CuCl2/ascorbic acid-induced reduction in ICDH level at 66 uM using isocitrate as substrate after 1 hr relative to control; type: functional, subcellular; conditions: Capra hircus, Heart, Mitochrondria
[6] = system: Mitochondria; test: Antioxidant activity in goat cardiac mitochondria assessed as reversal of CuCl2/ascorbic acid-induced reduction in alpha-KGDH level at 33 uM using alpha-ketoglutarate as substrate after 1 hr relative to control; type: functional, subcellular; conditions: Capra hircus, Heart, Mitochrondria
[7] = system: Mitochondria; test: Antioxidant activity in goat cardiac mitochondria assessed as reversal of CuCl2/ascorbic acid-induced reduction in SDH level at 33 uM using succinate as substrate after 1 hr by spectrophotometric analysis relative to control; type: functional, subcellular; conditions: Capra hircus, Heart, Mitochrondria
[8] = system: Mitochondria; test: Antioxidant activity in goat cardiac mitochondria assessed as inhibition of CuCl2/ascorbic acid-induced protein carbonyl content at 66 uM after 1 hr by DNPH assay relative to control; type: functional, subcellular; conditions: Capra hircus, Heart, Mitochrondria
[9] = Binding affinity to Cu2+ assessed as decrease in heat change at 66 uM in presence of CuCl2 by isothermal titration calorimetry
[10] = Antioxidant activity in pH 7.4 phosphate buffer assessed as H2O2 scavenging activity by measuring H2O2 decomposition at 1.34 to 10.72 uM by spectrophotometric analysis; type: functional
[11] = system: Mitochondria; test: as §1, with “oxidoreductase activity at 8.25 uM incubated for” for “oxidoreductase activity incubated for”, “spectrophotometric analysis (reference value: 47.82%)” for “spectrophotometric analysis”; type: functional, subcellular; design: scale not given: the % may be the effect or the level left; conditions: Capra hircus, Heart, Mitochrondria
[12] = system: Mitochondria; test: Antioxidant activity in goat cardiac mitochondria assessed as reversal of CuCl2/ascorbic acid-induced reduction in GSH level at 66 uM after 1 hr by DTNB reagent based method relative to control; type: functional, subcellular; conditions: Capra hircus, Heart, Mitochrondria
[13] = system: Mitochondria; test: Antioxidant activity in goat cardiac mitochondria assessed as inhibition of CuCl2/ascorbic acid-induced lipid peroxidation at 16.5 uM after 1 hr by thiobarbituric acid based UV-Visible spectrophotometric method (reference value: 60.11%); type: functional, subcellular; conditions: Capra hircus, Heart, Mitochrondria
[14] = system: Mitochondria; test: Antioxidant activity in goat cardiac mitochondria assessed as reversal of CuCl2/ascorbic acid-induced reduction in SDH level at 66 uM using succinate as substrate after 1 hr by spectrophotometric analysis relative to control; type: functional, subcellular; conditions: Capra hircus, Heart, Mitochrondria
[15] = organism: Capra hircus; test: Effect on ICDH in goat cardiac mitochondria assessed as reversal of CuCl2/ascorbic acid induced reduction in Km at 66 uM using isocitrate as substrate after 1 hr by Lineweaver-Burk double reciprocal plot analysis; conditions: Heart
[16] = Reducing power of the compound assessed as reducing Fe3+ power at 80 uM using K3Fe(CN)6 in pH 6.6 phosphate buffer after 20 mins by spectrophotometric analysis
[17] = system: Mitochondria; test: Antioxidant activity in goat cardiac mitochondria assessed as inhibition of CuCl2/ascorbic acid-induced manganese superoxide dismutase at 8.25 uM after 1 hr by pyrogallol autoxidation method relative to control; type: functional, subcellular; conditions: Capra hircus, Heart, Mitochrondria
[18] = system: Mitochondria; test: Protective activity against CuCl2/ascorbic acid-induced apoptotic alteration in goat cardiac mitochondria assessed as reversal of CuCl2/ascorbic acid-induced reduction in cytochrome c oxidase activity at 16.5 uM incubated for 1 hr and measured at 10 secs time interval for 90 secs by spectrophotometric analysis relative to control; type: functional, subcellular; conditions: Capra hircus, Heart, Mitochrondria
[19] = Effect on ICDH levels in goat cardiac mitochondria at 8.25 to 66 uM using isocitrate as substrate after 1 hr; type: ADME, subcellular, Capra hircus, Heart, Mitochrondria
[20] = Inhibition of ICDH in goat cardiac mitochondria assessed as effect on Vmax at 66 uM using isocitrate as substrate after 1 hr by Lineweaver-Burk double reciprocal plot analysis; design: species or system Capra hircus, Heart
[21] = organism: Capra hircus; test: Effect on PDH in goat cardiac mitochondria assessed as reversal of CuCl2/ascorbic acid induced reduction in Km at 66 uM using sodium pyruvate as substrate after 1 hr by Lineweaver-Burk double reciprocal plot analysis; conditions: Heart
[22] = Binding affinity to ascorbate assessed as decrease in heat change at 66 uM in presence of ascorbic acid by isothermal titration calorimetry

- Activity [1]: Dose-dependent effect
- K [3]: 5.07 ×10³ /M
- Activity [9]: Active
- Activity [11]: 23.5%
- Activity [15]: Active
- fold change (FC) [18]: 2.36
- inhibition (INH) [20]: Not Active
- Activity [21]: Active
- Activity [22]: Active
SMILES: CCOC(=O)c1c(-c2ccc(O)c(OC)c2)cn2c1c(=O)oc1ccccc12
- inhibition [2]: 21.9%
- fold change (FC) [4]: 2.08
- fold change (FC) [5]: 3.52
- fold change (FC) [6]: 2.74
- fold change (FC) [7]: 3.06
- inhibition [8]: 72.1%
- Activity [10]: inactive
- fold change (FC) [12]: 6.3
- inhibition [13]: 19.9%
- fold change (FC) [14]: 5
- Activity [16]: Dose-dependent effect
- inhibition [17]: 25.7%
- Activity [19]: Non-Toxic
